One compound from ChEMBL document CHEMBL5137068, “Discovery of Hexahydrofuro[3,2-b]furans as New Kinase-Selective and Orally Bioavailable JAK3 Inhibitors for the Treatment of Leukemia Harboring a JAK3 Activating Mutant” (J Med Chem, 2022) can be followed below.

Data set [1] can be described thus: Clearance in 12 hr fasted SPF Sprague-Dawley rat at 5 mg/kg, iv upon 2 hrs fasting post-administration measured upto 24 hrs. Format: ADME, organism-based. Conditions: in vivo.
A short description of data set [2]: Oral bioavailability in 12 hr fasted SPF Sprague-Dawley rat at 15 mg/kg upon 2 hrs fasting post-administration measured upto 24 hrs. Conditions: in vivo. Format: ADME, organism-based.
For data set [3], the target named is Receptor-type tyrosine-protein kinase FLT3 (Homo sapiens) (UniProt P36888). Nature of the data set: Inhibition of human FLT3 at 0.5 uM relative to control.
In data set [4] the target is T1, Tyrosine-protein kinase JAK3 (Homo sapiens) (UniProt P52333).
T1 sequence (whole entry): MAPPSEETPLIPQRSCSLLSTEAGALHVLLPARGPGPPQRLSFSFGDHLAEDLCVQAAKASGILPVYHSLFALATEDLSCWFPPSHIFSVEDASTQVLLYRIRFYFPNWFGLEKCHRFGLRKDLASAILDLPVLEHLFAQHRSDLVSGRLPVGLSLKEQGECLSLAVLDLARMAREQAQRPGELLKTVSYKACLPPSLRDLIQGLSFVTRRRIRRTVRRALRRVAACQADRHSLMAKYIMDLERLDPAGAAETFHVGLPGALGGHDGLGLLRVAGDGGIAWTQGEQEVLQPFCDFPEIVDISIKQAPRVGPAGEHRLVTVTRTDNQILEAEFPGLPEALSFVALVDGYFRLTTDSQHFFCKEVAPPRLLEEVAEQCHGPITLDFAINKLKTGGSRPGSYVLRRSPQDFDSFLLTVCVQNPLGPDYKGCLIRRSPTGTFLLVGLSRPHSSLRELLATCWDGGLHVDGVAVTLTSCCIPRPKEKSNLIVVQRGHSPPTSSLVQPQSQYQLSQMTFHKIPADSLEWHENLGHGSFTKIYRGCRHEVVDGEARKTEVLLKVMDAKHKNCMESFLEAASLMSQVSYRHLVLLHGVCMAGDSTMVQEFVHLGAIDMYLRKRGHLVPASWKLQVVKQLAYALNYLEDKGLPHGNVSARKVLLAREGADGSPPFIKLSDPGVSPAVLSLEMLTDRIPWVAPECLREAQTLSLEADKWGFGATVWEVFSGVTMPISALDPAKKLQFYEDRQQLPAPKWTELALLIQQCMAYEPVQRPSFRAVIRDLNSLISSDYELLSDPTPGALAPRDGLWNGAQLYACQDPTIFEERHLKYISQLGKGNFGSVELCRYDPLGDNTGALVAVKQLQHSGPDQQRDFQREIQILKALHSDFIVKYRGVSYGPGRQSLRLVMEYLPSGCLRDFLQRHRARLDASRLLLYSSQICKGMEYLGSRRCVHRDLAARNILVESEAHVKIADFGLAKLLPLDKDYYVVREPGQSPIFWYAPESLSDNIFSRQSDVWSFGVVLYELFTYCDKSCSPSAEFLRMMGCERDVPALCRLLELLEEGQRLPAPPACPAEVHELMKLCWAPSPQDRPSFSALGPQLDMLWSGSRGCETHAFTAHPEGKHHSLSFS
Put plainly: Inhibition of JAK3 activation in human U-937 cells assessed as decrease in P-STAT5 at 100 uM by Western blot analysis. Format: cell-based. Conditions: time 0-24 hrs, TDE = time-dependent effect. A general note: Immunoblotting shows a protein as a band on a membrane.

For data set [5], the target named is Signal transducer and activator of transcription 3 (Homo sapiens) (UniProt P40763). Put plainly: Inhibition of STAT3 activation in human U-937 cells assessed as decrease in P-STAT3 incubated for 0 to 24 hrs by Western blot analysis. Type of data set: cell-based. Conditions: dose 200.0 µM, time 0-24 hrs, DDE = dose-dependent effect.
For data set [6], the system named is U-937. Put plainly: Induction of cell cycle arrest in human U-937 cells assessed as accumulation at G2/M phase at 11 nM measured after 24 hrs by propidium iodide staining based flow cytometric analysis (reference value: 21.41%). Type of data set: functional. (In flow cytometry, cells or beads pass a laser one at a time.)
Data set [7] concerns U-937. Nature of the data set: Induction of cell cycle arrest in human U-937 cells assessed as downregulation of Cyclic B1 at 0 to 300 nM measured after 24 hrs by western blot analysis. Format: functional, cell-based. Conditions: dose 0-300 nM.
Data set [8] deals with U-937. Nature of the data set: Induction of cell cycle arrest in human U-937 cells assessed as downregulation of Cyclic D3 at 0 to 300 nM measured after 24 hrs by western blot analysis. Conditions: dose 0-300 nM. Format: functional, cell-based.
Data set [9] deals with U-937. Put plainly: Antitumor activity against human U-937 cells xenografted in po dosed CB17-SCID mouse assessed as tumor growth inhibition twice daily for 10 days. Format: functional, organism-based. Conditions: time 10.0 day, DDE = dose-dependent effect. (Xenograft models place foreign cells or tissue in a host animal.)
The nature of data set [10]: Toxicity in CB17-SCID mouse xenografted with human U-937 cells assessed as body weight loss at 12.5 to 50 mg/kg, po twice daily for 10 days. Format: organism-based. Conditions: in vivo, 240 h, dose 12.5-50 mg/kg, time 10 day.
The target of data set [11] is Cyclin-dependent kinase 16 (Homo sapiens) (UniProt Q00536). Put plainly: Inhibition of human CDK16 at 0.5 uM assessed as competition rate relative to control.
The target of data set [12] is Tyrosine-protein kinase ITK/TSK (Homo sapiens) (UniProt Q08881). Nature of the data set: Inhibition of ITK (unknown origin) at 0.5 uM assessed as competition rate relative to control.
The target in data set [13] is Tyrosine-protein kinase Tec (Homo sapiens) (UniProt P42680). Put plainly: Inhibition of TEC (unknown origin) at 0.5 uM assessed as competition rate relative to control.
Data set [14] concerns U-937. Nature of the data set: cells. Conditions: Homo sapiens, U-937, 72 h.

SMILES strings stand for the structures. The source made the active and inactive calls. The calls are words filed in the database; no cut-off is given here.

Chain of Tyrosine-protein kinase ITK/TSK (Homo sapiens) (Q08881 whole entry): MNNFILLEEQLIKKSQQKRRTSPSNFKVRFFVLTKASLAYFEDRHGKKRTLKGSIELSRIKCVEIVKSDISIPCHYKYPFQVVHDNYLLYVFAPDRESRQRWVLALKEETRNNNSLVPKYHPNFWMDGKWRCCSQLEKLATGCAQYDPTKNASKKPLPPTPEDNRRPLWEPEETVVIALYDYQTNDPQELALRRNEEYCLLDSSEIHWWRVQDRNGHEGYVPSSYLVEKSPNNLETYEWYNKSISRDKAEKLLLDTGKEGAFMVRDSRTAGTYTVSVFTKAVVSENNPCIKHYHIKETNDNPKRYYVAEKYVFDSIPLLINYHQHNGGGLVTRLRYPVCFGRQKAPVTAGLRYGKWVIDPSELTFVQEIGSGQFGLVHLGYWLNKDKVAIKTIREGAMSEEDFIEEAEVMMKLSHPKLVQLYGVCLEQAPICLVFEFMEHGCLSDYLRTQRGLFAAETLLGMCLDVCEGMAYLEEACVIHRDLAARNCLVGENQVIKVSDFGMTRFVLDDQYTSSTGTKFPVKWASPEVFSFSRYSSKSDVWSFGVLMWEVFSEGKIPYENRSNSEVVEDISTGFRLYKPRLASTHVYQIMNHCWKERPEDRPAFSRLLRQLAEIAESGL
Chain of Signal transducer and activator of transcription 3 (Homo sapiens) (P40763 whole entry): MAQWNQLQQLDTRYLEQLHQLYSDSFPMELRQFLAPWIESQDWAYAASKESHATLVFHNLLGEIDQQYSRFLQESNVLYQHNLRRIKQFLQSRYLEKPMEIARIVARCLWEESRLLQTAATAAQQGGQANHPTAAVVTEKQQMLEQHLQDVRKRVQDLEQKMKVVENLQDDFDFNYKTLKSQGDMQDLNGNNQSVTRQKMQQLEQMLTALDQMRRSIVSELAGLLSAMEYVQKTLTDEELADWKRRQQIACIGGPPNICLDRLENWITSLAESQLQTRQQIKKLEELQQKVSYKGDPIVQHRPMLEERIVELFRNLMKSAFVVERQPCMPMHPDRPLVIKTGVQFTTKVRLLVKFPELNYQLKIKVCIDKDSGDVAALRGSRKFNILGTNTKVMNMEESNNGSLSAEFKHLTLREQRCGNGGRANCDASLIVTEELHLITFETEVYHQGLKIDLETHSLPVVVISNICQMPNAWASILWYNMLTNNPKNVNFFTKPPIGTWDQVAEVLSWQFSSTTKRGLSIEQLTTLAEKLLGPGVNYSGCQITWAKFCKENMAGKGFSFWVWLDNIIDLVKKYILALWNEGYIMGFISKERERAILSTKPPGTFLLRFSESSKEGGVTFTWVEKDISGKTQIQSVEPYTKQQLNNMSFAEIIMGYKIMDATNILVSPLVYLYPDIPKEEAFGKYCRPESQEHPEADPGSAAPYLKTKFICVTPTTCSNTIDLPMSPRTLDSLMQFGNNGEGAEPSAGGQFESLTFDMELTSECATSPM
Chain of Receptor-type tyrosine-protein kinase FLT3 (Homo sapiens) (P36888 whole entry): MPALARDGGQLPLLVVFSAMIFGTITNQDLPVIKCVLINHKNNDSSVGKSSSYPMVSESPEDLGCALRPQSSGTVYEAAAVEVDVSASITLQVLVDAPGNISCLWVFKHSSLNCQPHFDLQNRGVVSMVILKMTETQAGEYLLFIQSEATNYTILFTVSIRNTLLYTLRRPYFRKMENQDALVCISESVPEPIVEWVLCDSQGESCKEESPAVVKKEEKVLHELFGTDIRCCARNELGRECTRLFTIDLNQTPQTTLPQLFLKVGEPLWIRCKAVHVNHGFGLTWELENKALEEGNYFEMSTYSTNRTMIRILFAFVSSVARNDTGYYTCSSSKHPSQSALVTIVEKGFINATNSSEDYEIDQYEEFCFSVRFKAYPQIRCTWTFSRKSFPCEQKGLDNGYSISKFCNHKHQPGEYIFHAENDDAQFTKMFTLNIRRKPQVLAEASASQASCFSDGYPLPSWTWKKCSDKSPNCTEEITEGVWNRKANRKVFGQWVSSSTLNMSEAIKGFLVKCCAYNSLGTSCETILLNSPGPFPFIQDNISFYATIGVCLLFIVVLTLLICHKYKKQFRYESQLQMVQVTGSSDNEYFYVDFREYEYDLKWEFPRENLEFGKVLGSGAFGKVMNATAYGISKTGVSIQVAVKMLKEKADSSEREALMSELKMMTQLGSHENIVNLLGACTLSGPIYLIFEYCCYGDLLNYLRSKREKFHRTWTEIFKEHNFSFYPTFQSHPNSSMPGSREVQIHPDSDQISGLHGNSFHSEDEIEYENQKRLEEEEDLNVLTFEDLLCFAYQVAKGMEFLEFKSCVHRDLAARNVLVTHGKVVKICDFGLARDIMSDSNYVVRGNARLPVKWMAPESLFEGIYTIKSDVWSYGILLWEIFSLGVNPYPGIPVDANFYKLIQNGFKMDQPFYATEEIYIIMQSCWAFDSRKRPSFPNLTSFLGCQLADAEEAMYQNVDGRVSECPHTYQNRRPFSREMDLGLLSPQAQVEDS
Chain of Cyclin-dependent kinase 16 (Homo sapiens) (Q00536 whole entry): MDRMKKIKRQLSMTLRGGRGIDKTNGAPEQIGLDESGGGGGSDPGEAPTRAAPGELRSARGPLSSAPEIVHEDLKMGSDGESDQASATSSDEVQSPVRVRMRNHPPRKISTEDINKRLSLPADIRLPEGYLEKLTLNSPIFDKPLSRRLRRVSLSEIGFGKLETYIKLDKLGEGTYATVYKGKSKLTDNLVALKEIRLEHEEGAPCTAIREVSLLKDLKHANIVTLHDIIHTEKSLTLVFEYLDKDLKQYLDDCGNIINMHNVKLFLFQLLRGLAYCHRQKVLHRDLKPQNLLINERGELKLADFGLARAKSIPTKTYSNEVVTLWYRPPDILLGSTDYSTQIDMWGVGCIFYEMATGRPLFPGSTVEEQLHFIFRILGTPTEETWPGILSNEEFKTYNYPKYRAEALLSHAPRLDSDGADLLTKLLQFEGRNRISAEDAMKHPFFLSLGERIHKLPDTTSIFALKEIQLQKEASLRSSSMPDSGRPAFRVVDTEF
Chain of Tyrosine-protein kinase Tec (Homo sapiens) (P42680 whole entry): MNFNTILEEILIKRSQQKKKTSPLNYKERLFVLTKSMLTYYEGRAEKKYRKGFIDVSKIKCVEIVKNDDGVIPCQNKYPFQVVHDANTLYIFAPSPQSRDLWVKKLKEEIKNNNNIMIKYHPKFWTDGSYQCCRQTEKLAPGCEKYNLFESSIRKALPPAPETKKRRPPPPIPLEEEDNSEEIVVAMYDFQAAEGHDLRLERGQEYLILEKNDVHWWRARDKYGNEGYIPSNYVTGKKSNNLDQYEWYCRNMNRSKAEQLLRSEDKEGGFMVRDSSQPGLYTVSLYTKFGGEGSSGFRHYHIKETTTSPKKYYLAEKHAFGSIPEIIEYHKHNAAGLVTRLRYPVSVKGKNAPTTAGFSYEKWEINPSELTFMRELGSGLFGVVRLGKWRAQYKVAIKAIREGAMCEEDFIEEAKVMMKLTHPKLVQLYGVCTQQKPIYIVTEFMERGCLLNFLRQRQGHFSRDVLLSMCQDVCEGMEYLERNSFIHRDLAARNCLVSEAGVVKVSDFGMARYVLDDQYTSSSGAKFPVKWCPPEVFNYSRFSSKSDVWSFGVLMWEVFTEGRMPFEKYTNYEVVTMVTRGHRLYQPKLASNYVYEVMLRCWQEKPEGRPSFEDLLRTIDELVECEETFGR

In general, bioavailability refers to the share of a dose that reaches the circulation, judged against a reference dose that is usually intravenous. High values mean good availability, low ones poor availability. For orientation: inhibition means the share of the control response that was lost under treatment. For orientation: IC50 means the concentration needed to halve the response being measured. Read a low IC50 as greater potency in that assay. In data set [1], `C=CC(=O)Nc1cc(Nc2ncc(Cl)c(O[C@@H]3CO[C@H]4[C@@H]3OC[C@H]4OC)n2)ccc1N(C)CCN(C)C` returned a CL of 155.22%. Besides, the bioavailability in data set [2] worked out at 20.7%. Also, the inhibition in [3] is 23%; in data set [4] it was “Tde”; in data set [5] it was “Dde”; in data set [11] it was 70%; in data set [12], 40%; in data set [13], 40%. Also, the Activity in [6] was 21.98%; in [9], “Dde”; in data set [10], “Non-Toxic”. Besides, the outcome in [7] and in data set [8] was Active. Further, it took 20.2 nM to reach half-maximal inhibition in data set [14] (IC50).
